Experimental data reported in patent publication US20230364039A1, “Methods of Managing Side Effects of a Vasopressin Receptor Antagonist Therapy” (Emory University, priority 2020, published 2023).
Like-named read-outs stand apart in the source and are kept apart here.

Columns and labels:
[1] = system: tolvaptan treated rats; assay: Urine osmolality / urine concentrating ability in tolvaptan treated rats; format: in vivo; conditions: FIG. 1; for urine osmolality: rats on tolvaptan 10 mg/kg/day by gavage, AMPK activator 2.5, 5 and 10 mg/kg/day up to 14 days, vs tolvaptan only
Method: Tolvaptan (10 mg/kg/day) was delivered by gavage feeding daily. AMPK activator was given at 2.5, 5 and 10 mg/kg/day for up to 14 total days, with daily urine collection for osmolality determination. Light bars: Osmolality in rats receiving tolvaptan only. Black bars: treated rats. Mean±s.e., n=4-5 for lower doses, 8-10 for 10 mg/kg/day, *=p<0.05.

[2] = system: vasopressin type 2 receptor knockout mouse model; assay: Urine concentrating ability in vasopressin type 2 receptor knockout mouse model; format: in vivo
[3] = system: adenosine monophosphate activated protein kinase (AMPK); assay: AMPK activator potency and specificity (preliminary data)
[4] = Hypoglycemia liability of AMPK activators; format: in vivo; conditions: preliminary data
[5] = general statement on some AMPK activators; cited from earlier work
[6] = system: rodents with nephrogenic diabetes insipidus; conditions: Efe et al., JCI Insight 2016; cited from earlier work
[7] = system: autosomal dominant polycystic kidney disease (ADPKD); conditions: cited from earlier work

## NC(=O)C1(CCCCCCCCCCCCC2(C(N)=O)CC2)CC1 [NP-5033, 1,1′-(dodecane-1,12-diyl)bis(cyclopropane-1-carboxamide)]
[1]
  urine osmolality: increases urine osmolality
[1]; listed as AMPK activator
  urine osmolality: urine osmolality increases
[1]; tolvaptan treated rats
  urine concentrating ability: improvement in urine concentrating ability
[2]
  urine concentrating ability: improvement in urine concentrating ability
[3]
  potency and specificity as AMPK activator: potent, specific
[4]
  hypoglycemia: does not cause hypoglycemia

## CN(C)C(=N)N=C(N)N [metformin]
[5]
  hypoglycemia: risk of developing hypoglycemia
[6]
  urine concentration: improves urine concentration

## Cc1ccccc1C(=O)Nc1ccc(C(=O)N2CCCC(O)c3cc(Cl)ccc32)c(C)c1 (stereo not shown) [tolvaptan, N-(4-(7-chloro-5-hydroxy-2,3,4,5-tetrahydro-1H-benzo[b]azepine-1-carbonyl)-3-methylphenyl)-2-methylbenzamide]
[7]; ADPKD
  progression of renal cyst development: slows the progression of renal cyst development
[7]; tolvaptan treatment, polyuria defined as greater than 2.5 L or 3 L over 24 hours in adults
  side effect: urine volume: overt polyuria
